Where two headings read alike, the source gives them in different places.
Key:
Uromyces appendiculatus = assay: In vivo preventive test on Uromyces appendiculatus (beans); details: 100 ppm of active ingredient, evaluated 10 days after inoculation
Description: (§1) Solvent: 24.5 parts by weight of acetone • 24.5 parts by weight of N,N-dimethylacetamide Emulsifier: 1 part by weight of alkylaryl polyglycol ether To produce a suitable preparation of active compound, 1 part by weight of active compound is mixed with the stated amounts of solvent and emulsifier, and the concentrate is diluted with water to the desired concentration. To test for preventive activity, young plants are sprayed with the preparation of active compound at the stated rate of application.

[1] = tested on: aflatoxines produced by Aspergillus parasiticus; assay: microbe, parasite or virus in culture; format: cell-based
Septoria tritici = assay: In vivo preventive test on Septoria tritici (wheat); details: 500 ppm of active ingredient, evaluated 21 days after inoculation
Description: Solvent: 49 parts by weight of N,N-dimethylacetamide Emulsifier: 1 part by weight of alkylaryl polyglycol ether To produce a suitable preparation of active compound, 1 part by weight of active compound or active compound combination is mixed with the stated amounts of solvent and emulsifier, and the concentrate is diluted with water to the desired concentration. To test for preventive activity, young plants are sprayed with the preparation of active compound or active compound combination at the stated rate of application. After the spray coating has been dried, the plants are sprayed with a spore suspension of Septoria tritici.

[2] = log P by HPLC on reversed-phase column (EEC Directive 79/831 Annex V.A8); format: physicochemical
Description: In table 1, the log P values were determined in accordance with EEC Directive 79/831 Annex V.A8 by HPLC (High Performance Liquid Chromatography) on a reversed-phase column (C18), using the method described below: Temperature: 40° C.; […]

Phakopsora pachyrhizi = assay: In vivo protective test on Phakopsora pachyrhizi (soybeans); details: Table N, 250 ppm of active ingredient, evaluated 11 days after inoculation
Aspergillus parasiticus = assay: microbe, parasite or virus in culture; format: cell-based
[3] = tested on: Fusarium nivale (var. majus); assay: In vivo preventive test on Fusarium nivale (wheat); details: 500 ppm of active ingredient, evaluated 5 days after inoculation
Description: Solvent: 49 parts by weight of N,N-dimethylacetamide Emulsifier: 1 part by weight of alkylaryl polyglycol ether To produce a suitable preparation of active compound, 1 part by weight of active compound or active compound combination is mixed with the stated amounts of solvent and emulsifier, and the concentrate is diluted with water to the desired concentration. To test for preventive activity, young plants are sprayed with the preparation of active compound or active compound combination at the stated rate of application. After the spray coating has been dried, the plants are slightly injured by using a sandblast and afterwards they are sprayed with a conidia suspension of Fusarium nivale (var. majus).

[4] = tested on: Blumeria graminis fsp. hordei; assay: In vivo preventive test on Blumeria graminis (barley); details: 500 ppm of active ingredient, evaluated 7 days after inoculation
Description: Solvent: 49 parts by weight of N,N-dimethylacetamide Emulsifier: 1 part by weight of alkylaryl polyglycol ether To produce a suitable preparation of active compound, 1 part by weight of active compound or active compound combination is mixed with the stated amounts of solvent and emulsifier, and the concentrate is diluted with water to the desired concentration. To test for preventive activity, young plants are sprayed with the preparation of active compound or active compound combination at the stated rate of application. After the spray coating has been dried, the plants are dusted with spores of Blumeria graminis fsp. hordei.

Venturia inaequalis = assay: In vivo preventive test on Venturia inaequalis (apple scab); details: 100 ppm of active ingredient, evaluated 10 days after inoculation
Description: as §1

Alternaria solani = assay: In vivo preventive test on Alternaria solani (tomato); details: 500 ppm of active ingredient, evaluated 7 days after inoculation
Procedure, shortened: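 Preventive set-up: Alternaria solani spores, as aqueous suspension, applied to young plants one day after spraying. Spray contained active compound formulated with N,N-dimethylformamide and emulsifier, water-diluted to the desired application rate.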

Pyrenophora teres = assay: In vivo preventive test on Pyrenophora teres (barley); details: 500 ppm of active ingredient, evaluated 7-9 days after inoculation
Procedure, shortened: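 Preventive test: young barley plants received a water-diluted spray of compound formulated with DMF solvent plus alkylaryl polyglycol ether emulsifier, at the stated rate. Inoculation with an aqueous spore suspension of Pyrenophora teres followed one day after spraying.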

Puccinia triticina = assay: In vivo preventive test on Puccinia triticina (wheat)
Sphaerotheca fuliginea = assay: In vivo preventive test on Sphaerotheca fuliginea (cucumber); details: 500 ppm of active ingredient, evaluated 7 days after inoculation
Procedure, shortened: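 Young cucumber plants sprayed with compound (in DMF with alkylarylpolyglycolether emulsifier, diluted in water) at the stated application rate. Inoculated one day later with aqueous Sphaerotheca fuliginea spore suspension. Plants then held in greenhouse at approximately 23° C and approximately 70% relative humidity.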

Cochliobolus miyabeanus = assay: In vivo protective test on Cochliobolus miyabeanus (rice); details: Table M, 250 ppm of active ingredient, evaluated 4 days after inoculation
Botrytis cinerea = assay: In vivo preventive test on Botrytis cinerea (beans)
Description: Solvent: 24.5 parts by weight of acetone • 24.5 parts by weight of N,N-dimethylacetamide
Emulsifier: 1 part by weight of alkylaryl polyglycol ether
To produce a suitable preparation of active compound, 1 part by weight of active compound is mixed with the stated amounts of solvent and emulsifier, and the concentrate is diluted with water to the desired concentration.
To test for preventive activity, young plants are sprayed with the preparation of active compound. After the spray coating has dried on, 2 small pieces of agar covered with growth of Botrytis cinerea are placed on each leaf. The inoculated plants are placed in a darkened chamber at 20° C. and a relative atmospheric humidity of 100%.
2 days after the inoculation, the size of the lesions on the leaves is evaluated. 0% means an efficacy which corresponds to that of the untreated control, while an efficacy of 100% means that no disease is observed.

Leptosphaeria nodorum = assay: In vivo preventive test on Leptosphaeria nodorum (wheat); details: 500 ppm of active ingredient, evaluated 7-9 days after inoculation
Procedure, shortened: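 Plants were inoculated with aqueous L. nodorum spores one day after a protective spray. The spray contained the compound at the stated rate, as a water-diluted concentrate in N,N-dimethylacetamide plus alkylaryl polyglycol ether emulsifier.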

Pyricularia oryzae = details: in vivo
[5] = Table K, 500 ppm of active ingredient, evaluated 8 days after inoculation
[6] = Table L, 500 ppm of active ingredient, lesion size 2 days after inoculation
[7] = 500 ppm of active ingredient, lesion size 2 days after inoculation

Structure (SMILES) | Efficacy (Uromyces appendiculatus) | % Inhibition of Aflatoxin at 50 μM [1] | Efficacy (Septoria tritici) | logP [2] | Efficacy (Phakopsora pachyrhizi) | Efficacy [3] | Efficacy [4] | Efficacy (Venturia inaequalis) | Efficacy (Alternaria solani) | Efficacy (Pyrenophora teres) | Efficacy (Puccinia triticina; [5]) | Efficacy (Sphaerotheca fuliginea) | Efficacy (Botrytis cinerea; [6]) | Efficacy (Leptosphaeria nodorum) | % Inhibition of fungal growth at 50 μM (Aspergillus parasiticus) | further results
CC(C)CC(C)C1CCCCC1NC(=O)c1c(C(F)F)nn(C)c1Cl (single isomer, unassigned) [Example 334] | 100% | 100% | 100% | 4.75 isomer A | 100% | 93% | 90% | 100% | – | – | – | – | – | – | – | % Inhibition of fungal growth at 50 μM (Aspergillus parasiticus; 50 µM): 90%
Cn1nc(C(F)F)c(C(=O)NC2CCCCC2CCC(C)(C)C)c1F (single isomer, unassigned) [Example 358] | – | – | 80% | 4.51 isomer B | 95% | 100% | 100% | 100% | 100% | 100% | 100% | 100% | – | – | – | –
CC(CC(C)(C)C)C1CCCCC1NC(=O)c1c(C(F)F)nn(C)c1F (single isomer, unassigned) [Example 360] | – | 100% | 90% | 4.85 isomer A | – | 86% | 100% | 100% | 95% | 95% | 100% | 100% | – | – | – | % Inhibition of fungal growth at 50 μM (Aspergillus parasiticus; 50 µM): 96%; Efficacy (Cochliobolus miyabeanus): 94%
CC(N(C(=O)c1c(C(F)F)nn(C)c1F)C1CC1)C(C)(C)Cc1ccccc1 (stereo not drawn) [Example 9] | 94% | – | 100% | 4.06 | – | 100% | 100% | 100% | 90% | 100% | – | 95% | 100% | 100% | – | –
CC(CCc1ccc(Cl)cc1Cl)N(C(=O)c1c(C(F)F)nn(C)c1F)C1CC1 (stereo not drawn) [Example 184] | 100% | 100% | 100% | 4.56 | – | 100% | 100% | 100% | 90% | 100% | 90% | 100% | – | 95% | 100% | –
CC(CCc1c(Cl)cc(Cl)cc1Cl)NC(=O)c1c(C(F)F)nn(C)c1Cl (stereo not drawn) [Example 216] | – | 100% | 100% | 4.53 | – | 93% | – | – | – | 100% | 78% | 100% | – | – | 100% | Efficacy (Pyricularia oryzae): 95%; Efficacy (Cochliobolus miyabeanus): 90%
Cn1nc(C(F)F)c(C(=O)N(CC2CCCCC2c2ccccc2)C2CC2)c1F (stereo not drawn) [Example 240] | 100% | 100% | 100% | 4.31 | 85% | 71% | 100% | 100% | 100% | 100% | 95% | – | 95% | 70% | 98% | Efficacy (Botrytis cinerea; [7]): at least 95%; Efficacy (Botrytis cinerea; Table L2, dose 500 ppm, comparison with des-fluoro analogues): 95%
Cn1nc(C(F)F)c(C(=O)N(CC2CCCCC2c2ccccc2Cl)C2CC2)c1F (stereo not drawn) [Example 241] | 100% | 100% | 100% | 4.67 | 99% | – | – | 100% | 100% | 100% | 100% | 100% | 99% | 80% | 97% | –
Cn1nc(C(F)F)c(C(=O)N(CC2CCCCC2c2ccc(Cl)cc2Cl)C2CC2)c1F (stereo not drawn) [Example 242] | 100% | 100% | – | 5.31 | 99% | – | – | 100% | 100% | 100% | 100% | 100% | 95% | – | 100% | –
Cn1nc(C(F)F)c(C(=O)N(C2CC2)C2CCCC(c3ccccc3)C2)c1F (stereo not drawn) [Example 256] | 100% | 96% | 100% | 4.01 | 85% | 100% | – | 100% | 93% | 100% | 95% | – | 93% | 95% | 79% | Efficacy (Puccinia triticina; 500 ppm of active ingredient, evaluated 8 days after inoculation): at least 95%; Efficacy (Puccinia triticina; Table K5, dose 500 ppm, comparison with des-fluoro analogues): 95%; Efficacy (Botrytis cinerea; [7]): at least 90%; Efficacy (Botrytis cinerea; Table L5, dose 500 ppm, comparison with des-fluoro analogues): 93%
Cn1nc(C(F)F)c(C(=O)NC2CCCC(CCC(C)(C)C)C2)c1F (stereo not drawn) [Example 324, 3-(difluoromethyl)-N-[3-(3,3-dimethylbutyl)cyclohexyl]-5-fluoro-1-methyl-1H-pyrazole-4-carboxamide] | – | – | – | – | – | 100% | – | – | 90% | 94% | – | – | – | – | – | pest or weed control at 500 ppm (Puccinia triticina; Puccinia triticina, 192 h, Table K, 500 ppm of active ingredient, evaluated 8 days after inoculation, read-out: Efficacy): 100%; chromatographic logP ([2]; log P): 4.8; chromatographic logP ([2]; logP): 4.8; Efficacy (Cochliobolus miyabeanus): 97%
CC(C)CCC1CCCCC1NC(=O)c1c(C(F)F)nn(C)c1F (stereo not drawn) [Example 333] | – | 100% | 100% | 4.22 | 97% | 100% | 100% | 99% | 100% | 100% | 90% | 100% | – | 80% | 92% | –
Cn1nc(C(F)F)c(C(=O)NC2CCCCC2CC[Si](C)(C)C)c1F (stereo not drawn) [Example 353] | – | 99% | 80% | 4.70 | 85% | 100% | 90% | 99% | 95% | 95% | 70% | – | – | – | 85% | –

Reference: patent US8999956B2, “N-[(het)arylalkyl)] pyrazole(thio)carboxamides and their heterosubstituted analogues” (Bayer Intellectual Property GmbH, priority 2010, dated 2015)
